Experimental data reported in ChEMBL document CHEMBL1133290, “Quantitative structure-intestinal permeability relationship of benzamidine analogue thrombin inhibitor” (2000).

organism: Rattus norvegicus; assay: Everted sac permeability (ESA) of rat small intestine, after addition of thrombin inhibitor; format: functional

`CC(=O)N1CCN(C(=O)C(Cc2cccc(C(=N)N)c2)NS(=O)(=O)NCc2ccc(CO)cc2)CC1` (stereo unspecified) and `CC(=O)N1CCN(C(=O)C(Cc2cccc(C(=N)N)c2)NS(=O)(=O)NCc2ccccc2)CC1` (stereo unspecified) are within 0.2 log units of each other in “Log ESA” value: -0.836 for the first, -0.81 for the second.

`CC(=O)N1CCN(C(=O)C(Cc2cccc(C(=N)N)c2)NS(=O)(=O)NCCc2ccc3ccccc3c2)CC1` (stereo unspecified) and `CC(=O)N1CCN(C(=O)C(Cc2cccc(C(=N)N)c2)NS(=O)(=O)NCc2ccc3ccccc3c2)CC1` (stereo unspecified) are within 0.2 log units of each other in “Log ESA” value: -1.032 for the first, -0.932 for the second.

`COc1cccc(CNS(=O)(=O)NC(Cc2cccc(C(=N)N)c2)C(=O)N2Cc3ccccc3C2C(=O)O)c1OC` (stereo unspecified) and `COc1cccc(CNS(=O)(=O)NC(Cc2cccc(C(=N)N)c2)C(=O)N2CCC(C)CC2C(=O)O)c1OC` (stereo unspecified) are within 0.2 log units of each other in “Log ESA” value: -0.879 for the first, -1 for the second.

First: CC(=O)N1CCN(C(=O)C(Cc2cccc(C(=N)N)c2)NS(=O)(=O)NCc2cc(Br)cc3ccccc23)CC1 (stereo unspecified)
Second: CC(=O)N1CCN(C(=O)C(Cc2cccc(C(=N)N)c2)NS(=O)(=O)NCc2cccc3ccccc23)CC1 (stereo unspecified)
The “Log ESA” value of the first is lower: -1.367 for the first, -0.842 for the second.

`CC(=O)N1CCN(C(=O)C(Cc2cccc(C(=N)N)c2)NS(=O)(=O)NCCc2ccc3c(c2)OCCO3)CC1` (stereo unspecified) and `CC(=O)N1CCN(C(=O)C(Cc2cccc(C(=N)N)c2)NS(=O)(=O)NCCc2ccc3c(c2)OCO3)CC1` (stereo unspecified) are within 0.2 log units of each other in “Log ESA” value: -0.654 for the first, -0.636 for the second.

`CC(=O)N1CCN(C(=O)C(Cc2cccc(C(=N)N)c2)NS(=O)(=O)NCC2CCCCO2)CC1` (stereo unspecified) and `CC(=O)N1CCN(C(=O)C(Cc2cccc(C(=N)N)c2)NS(=O)(=O)NCCOC2CCCCC2)CC1` (stereo unspecified) are the same in “Log ESA” value: -0.708 for the first, -0.708 for the second.

Compared with `CC(=O)N1CCN(C(=O)C(Cc2cccc(C(=N)N)c2)NS(=O)(=O)NCC(C)c2ccccc2)CC1` (stereo unspecified), `CC(=O)N1CCN(C(=O)C(Cc2cccc(C(=N)N)c2)NS(=O)(=O)NCc2ccccc2O)CC1` (stereo unspecified) is higher in “Log ESA” value: -0.889 for the first, -0.514 for the second.

`CCOc1ccccc1CNS(=O)(=O)NC(Cc1cccc(C(=N)N)c1)C(=O)N1CCN(C(C)=O)CC1` (stereo unspecified) and `COc1ccccc1CNS(=O)(=O)NC(Cc1cccc(C(=N)N)c1)C(=O)N1CCN(C(C)=O)CC1` (stereo unspecified) are within 0.2 log units of each other in “Log ESA” value: -0.876 for the first, -0.815 for the second.

First: CC(=O)N1CCN(C(=O)C(Cc2cccc(C(=N)N)c2)NS(=O)(=O)NCC2CCCN2Cc2ccccc2)CC1 (stereo unspecified)
Second: CC(=O)N1CCN(C(=O)C(Cc2cccc(C(=N)N)c2)NS(=O)(=O)NCC2CNc3ccccc3C2)CC1 (stereo unspecified)
The “Log ESA” value of the first is lower: -0.963 for the first, -0.674 for the second.

`COc1cccc(CNS(=O)(=O)NC(Cc2cccc(C(=N)N)c2)C(=O)N2CCN(C(C)=O)CC2)c1` (stereo unspecified) and `COc1ccc(CNS(=O)(=O)NC(Cc2cccc(C(=N)N)c2)C(=O)N2CCN(C(C)=O)CC2)cc1OC` (stereo unspecified) are within 0.2 log units of each other in “Log ESA” value: -0.804 for the first, -0.633 for the second.

`CC(=O)N1CCN(C(=O)C(Cc2cccc(C(=N)N)c2)NS(=O)(=O)NCCc2cccc([N+](=O)[O-])c2)CC1` (stereo unspecified) and `CC(=O)N1CCN(C(=O)C(Cc2cccc(C(=N)N)c2)NS(=O)(=O)NCCc2cccc(N)c2)CC1` (stereo unspecified) are within 0.2 log units of each other in “Log ESA” value: -0.688 for the first, -0.75 for the second.

`COc1cc(CNS(=O)(=O)NC(Cc2cccc(C(=N)N)c2)C(=O)N2CCN(C(C)=O)CC2)ccc1[N+](=O)[O-]` (stereo unspecified) and `CC(=O)N1CCN(C(=O)C(Cc2cccc(C(=N)N)c2)NS(=O)(=O)NCc2ccc(Cl)cc2[N+](=O)[O-])CC1` (stereo unspecified) are within 0.2 log units of each other in “Log ESA” value: -0.559 for the first, -0.67 for the second.

`CC(=O)N1CCN(C(=O)C(Cc2cccc(C(=N)N)c2)NS(=O)(=O)NCc2c(F)c(F)c(F)c(F)c2F)CC1` (stereo unspecified) and `CC(=O)N1CCN(C(=O)C(Cc2cccc(C(=N)N)c2)NS(=O)(=O)NCc2cc(C)c(C)c(C)c2)CC1` (stereo unspecified) are within 0.2 log units of each other in “Log ESA” value: -0.65 for the first, -0.818 for the second.

Going from `CC(=O)N1CCN(C(=O)C(Cc2cccc(C(=N)N)c2)NS(=O)(=O)NCC(C)(c2ccccc2)c2ccccc2)CC1` (stereo unspecified) to `CC(=O)N1CCN(C(=O)C(Cc2cccc(C(=N)N)c2)NS(=O)(=O)NCC(c2ccccc2)c2ccccc2)CC1` (stereo unspecified), the “Log ESA” value rises from -1.456 to -1.092.

Compared with `COc1cccc(CNS(=O)(=O)NC(Cc2cccc(C(=N)N)c2)C(=O)N2CCN(C(C)=O)CC2)c1O` (stereo unspecified), `COc1ccc(CNS(=O)(=O)NC(Cc2cccc(C(=N)N)c2)C(=O)N2CCN(C(C)=O)CC2)c(OC)c1` (stereo unspecified) is higher in “Log ESA” value: -0.833 for the first, -0.602 for the second.

`CCOc1c(CNS(=O)(=O)NC(Cc2cccc(C(=N)N)c2)C(=O)N2CCN(C(C)=O)CC2)sc2ccccc12` (stereo unspecified) and `CC(=O)N1CCN(C(=O)C(Cc2cccc(C(=N)N)c2)NS(=O)(=O)NCc2c[nH]c3ccccc23)CC1` (stereo unspecified) are within 0.2 log units of each other in “Log ESA” value: -0.983 for the first, -0.914 for the second.

`CNC1CCN(C(=O)C(Cc2cccc(C(=N)N)c2)NS(=O)(=O)NCc2cccc(OC)c2OC)CC1` (stereo unspecified) and `COc1cccc(CNS(=O)(=O)NC(Cc2cccc(C(=N)N)c2)C(=O)N2CCN(CCO)CC2)c1OC` (stereo unspecified) are within 0.2 log units of each other in “Log ESA” value: -0.686 for the first, -0.796 for the second.

`CC(=O)N1CCN(C(=O)C(Cc2cccc(C(=N)N)c2)NS(=O)(=O)NCCc2cc3c(cc2[N+](=O)[O-])OCO3)CC1` (stereo unspecified) and `CC(=O)N1CCN(C(=O)C(Cc2cccc(C(=N)N)c2)NS(=O)(=O)NCCc2cccc3ncccc23)CC1` (stereo unspecified) are within 0.2 log units of each other in “Log ESA” value: -0.564 for the first, -0.686 for the second.

Compared with `CC(=O)N1CCN(C(=O)C(Cc2cccc(C(=N)N)c2)NS(=O)(=O)NCc2cccc3cc(O)ccc23)CC1` (stereo unspecified), `COc1ccc2c(CNS(=O)(=O)NC(Cc3cccc(C(=N)N)c3)C(=O)N3CCN(C(C)=O)CC3)cccc2c1` (stereo unspecified) is lower in “Log ESA” value: -0.59 for the first, -0.86 for the second.

Compared with `CC(=O)N1CCN(C(=O)C(Cc2cccc(C(=N)N)c2)NS(=O)(=O)NCCc2nccc3ccccc23)CC1` (stereo unspecified), `CC(=O)N1CCN(C(=O)C(Cc2cccc(C(=N)N)c2)NS(=O)(=O)NCCc2cccc3ccccc23)CC1` (stereo unspecified) is lower in “Log ESA” value: -0.635 for the first, -1.114 for the second.

First: CC(=O)N1CCN(C(=O)C(Cc2cccc(C(=N)N)c2)NS(=O)(=O)NCCCc2ccccc2C(=O)N2CCCC2)CC1 (stereo unspecified)
Second: CC(=O)N1CCN(C(=O)C(Cc2cccc(C(=N)N)c2)NS(=O)(=O)NCC2COc3ccccc3O2)CC1 (stereo unspecified)
The “Log ESA” value of the first is lower: -1.027 for the first, -0.726 for the second.

`CC(=O)N1CCN(C(=O)C(Cc2cccc(C(=N)N)c2)NS(=O)(=O)NCc2cccc(Oc3ccccc3)c2)CC1` (stereo unspecified) and `CC(=O)N1CCN(C(=O)C(Cc2cccc(C(=N)N)c2)NS(=O)(=O)NCc2ccc(-c3ccccc3)cc2)CC1` (stereo unspecified) are within 0.2 log units of each other in “Log ESA” value: -1.149 for the first, -1.174 for the second.

`CC(=O)N1CCN(C(=O)C(Cc2cccc(C(=N)N)c2)NS(=O)(=O)NCc2ccc(CCc3ccccc3)cc2)CC1` (stereo unspecified) and `CC(=O)N1CCN(C(=O)C(Cc2cccc(C(=N)N)c2)NS(=O)(=O)NCc2ccccc2-c2ccccc2)CC1` (stereo in doubt; 5) are within 0.2 log units of each other in “Log ESA” value: -1.252 for the first, -1.071 for the second.

`CC(CNS(=O)(=O)NC(Cc1cccc(C(=N)N)c1)C(=O)N1CCCC(C(=O)O)C1)c1ccccc1` (stereo in doubt; 9) and `N=C(N)c1cccc(CC(NS(=O)(=O)NCc2cccc3ccccc23)C(=O)N2CCCC(C(=O)O)C2)c1` (stereo in doubt; 10) are within 0.2 log units of each other in “Log ESA” value: -0.762 for the first, -0.752 for the second.

`CC(CNS(=O)(=O)NC(Cc1cccc(C(=N)N)c1)C(=O)N1CCCC(C(=O)O)C1)c1ccccc1` (stereo in doubt; 11) and `N=C(N)c1cccc(CC(NS(=O)(=O)NCc2cccc3ccccc23)C(=O)N2CCCC(C(=O)O)C2)c1` (stereo in doubt; 12) are within 0.2 log units of each other in “Log ESA” value: -0.759 for the first, -0.893 for the second.

`CC(=O)N1CCN(C(=O)C(Cc2cccc(C(=N)N)c2)NS(=O)(=O)NCc2ccccc2-c2ccccc2)CC1` (stereo in doubt; 20) was tested, and the “Log ESA” value was -0.987.
